Where “and” joins values, the source holds several entries; their conditions need not be identical. Identical values can stand only once.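 These data come from cells grown in 96-well plates and exposed to compound for 48 hours at five concentrations. GI50 marks 50% less growth. Definition used: TGI = concentration required for complete inhibition of growth.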
What was measured:
Experiment in all cases: NCI tumour cell line growth inhibition, 48 h
DMS 273 small cell lung = test system: DMS 273 small cell lung
HOP-18 NSCLC = test system: HOP-18 NSCLC
XF 498 CNS = test system: XF 498 CNS
DMS 114 small cell lung = test system: DMS 114 small cell lung
P388/ADR leukemia = test system: P388/ADR leukemia
SN12K1 renal = test system: SN12K1 renal
RXF-631 renal = test system: RXF-631 renal
LXFL 529 NSCLC = test system: LXFL 529 NSCLC
KM20L2 colon = test system: KM20L2 colon
MDA-N = test system: MDA-N
SNB-78 CNS = test system: SNB-78 CNS

SMILES	TGI (DMS 273 small cell lung)	TGI (HOP-18 NSCLC)	TGI (XF 498 CNS)	TGI (DMS 114 small cell lung)	TGI (LXFL 529 NSCLC)	TGI (KM20L2 colon)	TGI (MDA-N)	TGI (SNB-78 CNS)	other results
O=NN(CCCl)C(=O)NC1CCCCC1	65.1 µM and 124 µM and 170 µM	56.2 µM and 152 µM	36.4 µM and 128 µM and 114 µM	38.8 µM and 112 µM and 183 µM	32.8 µM and 111 µM and 76.6 µM	96.9 µM and 144 µM and 350 µM	134 µM		GI50 (DMS 273 small cell lung): 28.2 µM and 76.7 µM; GI50 (HOP-18 NSCLC): 84.4 µM; GI50 (XF 498 CNS): 18 µM and 82 µM; GI50 (DMS 114 small cell lung): 20.7 µM and 70.3 µM; TGI (P388/ADR leukemia): 47.4 µM; TGI (SN12K1 renal): 101 µM; GI50 (RXF-631 renal): 25 µM; TGI (RXF-631 renal): 132 µM; GI50 (LXFL 529 NSCLC): 17.3 µM; GI50 (KM20L2 colon): 34.3 µM and 163 µM
Nc1ncnc2c1nc(Cl)n2C1OC(CO)C(O)C1O (stereo not given)							> 100 µM		
Nc1nc(=S)[nH]c(C(=O)Nc2nccs2)c1-c1ccccc1	> 100 µM	> 100 µM	> 100 µM	> 100 µM	> 100 µM	> 100 µM		> 100 µM	
CN(C)c1ccc(O[Si](Oc2ccc(N(C)C)cc2)(Oc2ccc(N(C)C)cc2)Oc2ccc(N(C)C)cc2)cc1		> 100 µM	> 100 µM	> 100 µM	> 100 µM	> 100 µM			
CCCCCCCCCCCCCCC(C)CCC(=O)O (stereo not given)		> 100 µM	> 100 µM					> 100 µM	
Cc1ccc(C2=C(Cl)C(=O)C(c3ccc(C)cc3)=C(Cl)C2=O)cc1							> 100 µM		
COc1ccc(C(=O)O/N=C2/CCCCC2CN(C)C)cc1 (stereo not given)	> 100 µM	> 100 µM			> 100 µM	> 100 µM		> 100 µM	TGI (RXF-631 renal): > 100 µM
CN(C)c1ccc(N=C2C=CC(=C(C#N)C#N)c3ccccc32)cc1	12.6 µM	16.3 µM	1.65 µM	0.666 µM			0.441 µM	16.7 µM	
Nc1nc(=S)c2[nH]cnc2[nH]1	39.1 µM	139 µM	8.35 µM	36.3 µM	233 µM	67.4 µM		172 µM	TGI (P388/ADR leukemia): 12.9 µM; TGI (SN12K1 renal): 11.2 µM; TGI (RXF-631 renal): 113 µM; GI50 (MDA-N): 541 nM and 1240 nM
OCC(O)C(O)C(O)C(O)c1nn[nH]n1 (stereo not given)	> 100 µM		> 100 µM	> 100 µM	> 100 µM			> 100 µM	
CC1CC(C)C(C(O)CC2CC(=O)N(c3ccccc3)C(=O)C2)C(O)C1 (stereo not given)	> 100 µM	> 100 µM		> 100 µM	> 100 µM	> 100 µM		> 100 µM	
CCCCC[C@@H](C/C=C/CCC(=O)NC/C(=C/Cl)[C@H]1C(=O)C(C)(C)C(=O)[C@@H](C)[C@@]1(C)O)OC							36.1 µM		GI50 (MDA-N): 18400 nM
c1ccc2c3c([nH]c2c1)C1C2CCCCN2C(c2ccncc2)N1CC3 (stereo not given)	> 100 µM		98 µM	83.5 µM	> 100 µM	67.1 µM		> 100 µM	
COc1cc(N(CCC#N)CCC#N)ccc1/C(N=Nc1ccc(C(=O)O)cc1)=N/NC(=O)c1cc(Br)ccc1O							> 150 µg/mL		GI50 (MDA-N): 108 µg/mL
NNC(=O)N/N=C1\CN(c2ccc(Cl)cc2Cl)C(=O)C(=O)C1c1nc2ccccc2o1 (stereo not given)	> 100 µM		> 100 µM	> 100 µM	> 100 µM	> 100 µM		> 100 µM	TGI (RXF-631 renal): > 100 µM
[Cl-].[Gd+3].[O-]/N=C(\c1ccccc1)c1ccccn1.[O-]/N=C(\c1ccccc1)c1ccccn1.[O-]/N=C(\c1ccccc1)c1ccccn1	> 100 µM			> 100 µM	> 100 µM	> 100 µM			GI50 (DMS 273 small cell lung): 43.8 µM; GI50 (DMS 114 small cell lung): 36.8 µM; GI50 (LXFL 529 NSCLC): 50.1 µM; GI50 (KM20L2 colon): 39.7 µM
O=C(/C=C(\[O-])c1ccccc1)CCCCCCC(=O)/C=C(\[O-])c1ccccc1.O=C(/C=C(\[O-])c1ccccc1)CCCCCCC(=O)/C=C(\[O-])c1ccccc1.O=C(/C=C(\[O-])c1ccccc1)CCCCCCC(=O)/C=C(\[O-])c1ccccc1.[Nd+3].[Nd+3]						> 50 µM			GI50 (KM20L2 colon): > 50 µM

Source: PubChem BioAssay (NCI)
